The text below walks through data of PMC10952572, “Improved PIEZO1 agonism through 4‐benzoic acid modification of Yoda1” (British Journal of Pharmacology, 2023).

The test system of one assay is mouse portal vein. Description: Wire myography, relaxation of phenylephrine pre-constricted vein. As for the experimental part: Mice were anaesthetised with isoflurane (5% induction and 1.5% maintenance) in 95% O2 according to Schedule 1 procedure approved by the UK Home Office. The portal vein was quickly dissected and placed in Krebs solution. The Krebs PV solution consisted of 118 mM NaCl, 4.7 mM KCl, 2.5 mM CaCl2, 1.2 mM KH2PO4, 1.2 mM MgSO4·7H2O, 25.2 mM NaHCO3 and 11.1 mM glucose. By means of a dissecting microscope, adhering perivascular tissue was carefully removed and the vein was cut into 1 mm segments.
Vein segments were mounted onto two thin stainless steel wires in an isometric myograph (Multi Wire Myograph System 620M from Danish Myograph Technology [DMT]), for which the force transducer was calibrated once per month according to the manufacturer's instructions. The recording chamber was filled with gassed Krebs solution (95% O2/5% CO2, pH 7.4). The segments were then stretched to a normalised internal diameter according to the manufacturer's instructions. The mounted rings were kept in a 5 ml chamber containing Krebs solution at 37°C and continuously bubbled with a gas mixture of 95% O2 and 5% CO2 (pH 7.4). After an equilibration period of 60 min, the contractile function of the vessel was tested by replacing the Krebs solution by 60 mM K^+ solution. Following washout, the vein was contracted once with 10 μM phenylephrine and then Yoda1, KC159 or KC289 was applied with the concentrations of 0.1 to 10 μM. The NOS inhibitor, L‐NAME, (100 μM), was pre‐incubated for 20 min before the PIEZO1 modulator.
Because the anticipated effect of test compounds was to cause vessel relaxation, phenylephrine was applied to induce tension and the maximum value of this tension was defined as 0% relaxation (no relaxation). The value of tension immediately prior to application of phenylephrine was defined as 100% relaxation. Data are normalised to these values because, otherwise, the intrinsic variability in the absolute amount of tension induced by phenylephrine obscured exploration of the relaxant effect of compounds.
OriginPro 2020 was used for the analysis of myography data. Myography traces show readings taken every 0.5 or 1 s and were smoothed with the Savitzky–Golay filter set to 70 points. To compare the agonistic activity of Yoda1 analogues, basal vessel tension prior to compound injection was subtracted. Maximal tension in the presence of PE alone was used to define 0% relaxation. The tension value prior to PE application was defined as 100% relaxation. Following the addition of test compounds, tension readings were taken at the last time point of the treatments and expressed as percentage relaxation.

Assay [1] addresses T1, hPIEZO1 (Homo sapiens, UniProt Q92508).
T1 construct: expressed in transfected cells
Briefly: Intracellular Ca2+ measurement (Fura-2) in hPIEZO1-TREx cells. The assay is classed as cell-based. Conditions: 10 μM compound, hPIEZO1-TREx cells, paired with 10 μM Yoda1. An excerpt: HEK T‐REx™ 293 cells (Thermo Fisher Cat #R71007, RRID:CVCL_D585) that overexpress hPIEZO1 upon induction with tetracycline were generated as previously described (Rode et al., [2017]). PIEZO1‐GFP was used as a PCR template to clone hPIEZO1 coding sequence into pcDNA™4/TO between HindIII and EcoRI restriction sites. PIEZO1 was amplified as two fragments using the following primers: (HindIII‐PIEZO1‐Fw: […] and BamHI‐Int.PIEZO1‐Rv: […]) and (BamHI‐Int. PIEZO1‐Fw: […] and EcoRI‐PIEZO1‐Rv: […]). The two fragments were fused using BamHI restriction site, resulting in the full‐length PIEZO1 coding sequence with the c4182a silent mutation. HEK T‐REx™ 293 cells (Invitrogen) were transfected with pcDNA4/TO‐PIEZO1 using Lipofectamine 2000 (Thermo Fisher Scientific). Subsequently, cells were treated with 10 μg·ml^−1 blasticidin and 200 μg·ml^−1 zeocin (InvivoGen) to select stably transfected cells. Single‐cell clones were isolated and analysed individually. Expression was induced by treating the cells for 24 h with 10 ng·ml^−1 tetracycline and analysed by quantitative RT‐PCR and Western blot. These cells are referred to as hPIEZO1‐TREx.
(§1) HEK 293‐TREx cells and their stably transfected derivatives or transiently transfected HEK 293 or HeLa cells were seeded at a density of 7.5 × 10^4 cells per well into poly‐D‐lysine‐coated 96‐well plates. The plates were either commercially pre‐coated with poly‐D‐lysine (Greiner Bio‐One #655946) or (Greiner Bio‐One #655090) were coated in‐house with 35 μl of a 10 μg·ml^−1 poly‐D‐lysine (Bio‐Techne, Cultrex # 3439‐100‐01) in sterile deionised water per well for at least 24 h and rinsed three times with 100 μl per well sterile D‐PBS before addition of cells. HUVECs were seeded into tissue culture‐treated 96‐well plates (Greiner Bio‐One #655090) at a density of either 2.5 × 10^4 cells 24 h before experimentation or 1.25 × 10^4 cells 48 h before experimentation. Cells were incubated with 2 μM Fura‐2‐AM (Molecular Probes™) in the presence of 0.01% (wt./vol.) pluronic F127 (Sigma‐Aldrich #P2443) in standard bath solution (SBS) for 1 h at 37°C. Cells were washed with SBS for 30 min at room temperature. Alternatively, if inhibitors were being tested, these were added at this time, immediately following a wash in SBS. (−)‐Englerin A (Akbulut et al., [2015]) was used in SBS containing 0.01% pluronic acid as a dispersing agent to minimise aggregation of compound. Unless otherwise stated, the final concentration of DMSO was 0.2% (vol./vol). Working 2000× stock solutions of test compounds were freshly made in DMSO and diluted 1000‐fold in SBS during the 30 min SBS wash/inhibitor pre‐incubation period to obtain 2× solutions for injection. When testing the highest concentration of Yoda1, KC159 and KC289 (30 μM), the final DMSO concentration was 0.6% (vol./vol.). Measurements were made at room temperature on a 96‐well fluorescence plate reader (FlexStation 3, Molecular Devices, Sunnyvale, CA, USA) controlled by SoftMax Pro software v7.0.3. Recipient wells containing 80 μl SBS/0.2% (vol./vol.) DMSO vehicle or inhibitor compound received 80 μl 2× compound at an injection rate of 1 μl·s^−1, and the pipette introduced liquids from a height setting of 70 μl. No trituration was performed. For recordings using Fura‐2, the change in intracellular Ca was indicated as the ratio of Fura‐2 emission (510 nm) intensities at 340 and 380 nm excitation. Photomultipliers were set to medium sensitivity. SBS contained 130 mM NaCl, 5 mM KCl, 8 mM D‐glucose, 10 mM HEPES, 1.2 mM MgCl2 and 1.5 mM CaCl2, and the pH was adjusted to 7.4 with NaOH. The solution was filtered through a 0.2 μm bottle‐top filter prior to use and handled aseptically thereafter.
For intracellular Ca^2+ (Ca^2+i) measurements, technical intra‐experiment replicates were used to improve confidence in the data. Analysis of individual experiments was performed to obtain mean ± SEM values. […]

Assay [2] addresses T2, mPIEZO1 (Mus musculus, UniProt E2JF22).
T2 construct: expressed in transfected cells
Description: Intracellular Ca2+ measurement (Fura-2) in mPIEZO1-TREx cells. The assay is classed as cell-based. Conditions: for Peak ΔCa2+i (ΔF340/380), median fold difference compared to Yoda1: 10 μM compound, mPIEZO1-TREx cells, paired with 10 μM Yoda1; for Ca2+ response (agonist effect): 10 μM, cells overexpressing mPIEZO1, compared with Yoda1.
Excerpt: HEK T‐REx™ cells that constitutively overexpress murine PIEZO1 were generated as previously described (Blythe et al., [2019]). pcDNA3 mouse PIEZO1 (mPIEZO1) IRES green fluorescent protein (GFP), a gift from Ardem Patapoutian (Coste et al., [2010]), was used as a template to clone the mPIEZO1 coding sequence into pcDNA4/TO. Overlapping mPIEZO1 (forward primer 5′‐[…]‐3′ and reverse primer 5′‐[…]‐3′) and pcDNA4/TO (forward primer 5′‐[…]‐3′ and reverse primer 5′‐[…]‐3′) PCR products were assembled using Gibson Assembly (New England Biolabs). […] HEK T‐REx™ 293 cells were transfected with pcDNA4/TO‐mPIEZO1 using Lipofectamine 2000 (Invitrogen) and treated with 200 μg·ml^−1 zeocin to select stably transfected cells. Individual clones were isolated and analysed for expression using Yoda1 and intracellular Ca^2+ measurements. These cells are referred to as mPIEZO1‐TREx.
as §1
For intracellular Ca^2+ (Ca^2+i) measurements, technical intra‐experiment replicates were used to improve confidence in the data. Analysis of individual experiments was performed to obtain mean ± SEM values. For collated analysis of independent experiments, where normal distributions were not evidenced by Shapiro–Wilk normality tests, non‐parametric distributions were assumed, and therefore, median values were used. […]

The target of assay [3] is T2, mPIEZO1. Briefly: Pre-treatment with analogue before Yoda1 stimulus, Ca2+ assay in mPIEZO1-TREx cells. It counts as cell-based. As to conditions: mPIEZO1-TREx, 10 μM compound 30 min pretreatment before 0.5 μM Yoda1.
Assay [4] concerns the target T1, hPIEZO1. Briefly: Pre-treatment with analogue before Yoda1 stimulus, Ca2+ assay in hPIEZO1-TREx cells. The assay is classed as cell-based. As to conditions: for 2 μM Yoda1-evoked peak ΔCa2+i (ΔF340/380), median fold difference compared to DMSO pretreatment: hPIEZO1-TREx, 10 μM compound 30 min pretreatment before 2 μM Yoda1; for Inhibition of the action of Yoda1: hPIEZO1 channels, 10 μM for 30 min prior to Yoda1. As for the experimental part:
as §1
In view of the effect of Dooku1 described above, we tested if there are inhibitory actions of the new Yoda1 analogues by pre‐treating cells at 10 μM for 30 min prior to adding 2 μM Yoda1 (Figures 9 and S9, SI 1). All except KC157 and KC161 inhibited the action of Yoda1 on hPIEZO1 channels (Figures 9a and S9, SI 1). […] KC159 and KC289 were agonists, and so they may inhibit the effect of Yoda1 simply by pre‐activating the channels. KC158, KC161 and KC162 are also agonists of mPIEZO1 channels (Figure 3). […] Only the 2‐benzoic acid analogue (KC157) lacks agonist or antagonist properties.

T1 sequence (Q92508 whole entry): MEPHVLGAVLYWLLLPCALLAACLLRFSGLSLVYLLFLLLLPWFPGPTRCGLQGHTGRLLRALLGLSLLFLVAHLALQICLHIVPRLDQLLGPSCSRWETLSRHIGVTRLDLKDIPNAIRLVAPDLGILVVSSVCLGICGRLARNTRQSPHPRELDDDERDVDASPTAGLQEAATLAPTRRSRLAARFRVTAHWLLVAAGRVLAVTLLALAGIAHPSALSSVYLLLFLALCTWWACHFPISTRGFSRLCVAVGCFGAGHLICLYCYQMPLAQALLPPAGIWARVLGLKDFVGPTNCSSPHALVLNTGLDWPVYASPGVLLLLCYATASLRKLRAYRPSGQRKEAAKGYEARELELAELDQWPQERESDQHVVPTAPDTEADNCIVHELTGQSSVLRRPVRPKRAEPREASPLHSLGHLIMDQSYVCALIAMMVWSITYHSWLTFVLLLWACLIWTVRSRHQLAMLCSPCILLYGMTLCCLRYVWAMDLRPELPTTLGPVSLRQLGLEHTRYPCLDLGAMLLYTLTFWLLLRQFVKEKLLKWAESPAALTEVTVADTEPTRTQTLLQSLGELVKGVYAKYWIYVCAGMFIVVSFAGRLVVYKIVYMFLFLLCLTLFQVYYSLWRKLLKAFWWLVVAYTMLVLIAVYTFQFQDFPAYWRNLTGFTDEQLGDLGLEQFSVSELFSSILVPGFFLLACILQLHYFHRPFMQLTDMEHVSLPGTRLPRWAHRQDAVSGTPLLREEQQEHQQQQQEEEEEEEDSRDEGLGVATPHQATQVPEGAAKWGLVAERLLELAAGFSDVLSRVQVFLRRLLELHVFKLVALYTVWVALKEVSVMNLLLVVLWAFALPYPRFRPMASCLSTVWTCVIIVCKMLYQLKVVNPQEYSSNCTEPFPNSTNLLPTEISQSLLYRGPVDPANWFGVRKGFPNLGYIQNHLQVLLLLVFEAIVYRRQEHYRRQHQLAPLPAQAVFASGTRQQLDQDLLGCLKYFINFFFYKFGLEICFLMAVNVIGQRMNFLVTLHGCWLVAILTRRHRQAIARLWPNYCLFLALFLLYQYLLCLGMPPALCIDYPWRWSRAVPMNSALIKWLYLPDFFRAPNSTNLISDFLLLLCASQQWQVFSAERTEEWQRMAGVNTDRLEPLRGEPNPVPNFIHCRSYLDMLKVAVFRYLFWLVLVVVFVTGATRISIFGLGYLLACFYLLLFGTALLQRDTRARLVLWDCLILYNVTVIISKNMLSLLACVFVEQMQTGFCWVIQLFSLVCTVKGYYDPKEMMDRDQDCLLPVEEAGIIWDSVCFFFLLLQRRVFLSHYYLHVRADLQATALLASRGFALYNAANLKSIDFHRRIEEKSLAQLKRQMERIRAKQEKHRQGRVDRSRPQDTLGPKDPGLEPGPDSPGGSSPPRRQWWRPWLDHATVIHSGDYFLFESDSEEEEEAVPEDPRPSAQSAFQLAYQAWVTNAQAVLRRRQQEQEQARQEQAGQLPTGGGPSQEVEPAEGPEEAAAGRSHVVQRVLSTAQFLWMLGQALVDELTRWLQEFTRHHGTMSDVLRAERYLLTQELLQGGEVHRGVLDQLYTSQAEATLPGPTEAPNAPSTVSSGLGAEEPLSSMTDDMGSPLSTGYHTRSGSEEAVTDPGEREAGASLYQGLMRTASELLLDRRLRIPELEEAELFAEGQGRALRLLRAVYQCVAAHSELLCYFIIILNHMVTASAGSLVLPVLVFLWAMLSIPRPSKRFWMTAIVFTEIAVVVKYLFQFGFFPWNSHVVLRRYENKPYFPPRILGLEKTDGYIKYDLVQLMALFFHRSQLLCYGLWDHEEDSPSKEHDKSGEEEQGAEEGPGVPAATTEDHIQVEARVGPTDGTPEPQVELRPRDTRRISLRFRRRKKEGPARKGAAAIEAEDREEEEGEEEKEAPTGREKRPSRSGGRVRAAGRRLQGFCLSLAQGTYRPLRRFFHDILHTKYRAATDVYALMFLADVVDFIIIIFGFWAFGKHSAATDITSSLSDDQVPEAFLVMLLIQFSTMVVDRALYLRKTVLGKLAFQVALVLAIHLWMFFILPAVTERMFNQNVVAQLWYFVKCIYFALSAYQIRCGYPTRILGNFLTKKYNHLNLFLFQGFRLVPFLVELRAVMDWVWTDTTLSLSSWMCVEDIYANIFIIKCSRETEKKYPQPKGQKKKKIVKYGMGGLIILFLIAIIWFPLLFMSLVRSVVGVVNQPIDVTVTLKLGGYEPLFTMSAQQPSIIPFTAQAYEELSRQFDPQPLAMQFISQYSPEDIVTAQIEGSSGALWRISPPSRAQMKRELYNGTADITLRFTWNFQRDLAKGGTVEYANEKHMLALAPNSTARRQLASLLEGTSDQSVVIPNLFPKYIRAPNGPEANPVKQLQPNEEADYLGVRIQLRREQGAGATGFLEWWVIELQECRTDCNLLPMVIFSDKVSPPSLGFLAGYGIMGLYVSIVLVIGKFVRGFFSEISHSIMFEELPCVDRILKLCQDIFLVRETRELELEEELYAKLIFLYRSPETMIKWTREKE
T2 sequence (E2JF22 whole entry): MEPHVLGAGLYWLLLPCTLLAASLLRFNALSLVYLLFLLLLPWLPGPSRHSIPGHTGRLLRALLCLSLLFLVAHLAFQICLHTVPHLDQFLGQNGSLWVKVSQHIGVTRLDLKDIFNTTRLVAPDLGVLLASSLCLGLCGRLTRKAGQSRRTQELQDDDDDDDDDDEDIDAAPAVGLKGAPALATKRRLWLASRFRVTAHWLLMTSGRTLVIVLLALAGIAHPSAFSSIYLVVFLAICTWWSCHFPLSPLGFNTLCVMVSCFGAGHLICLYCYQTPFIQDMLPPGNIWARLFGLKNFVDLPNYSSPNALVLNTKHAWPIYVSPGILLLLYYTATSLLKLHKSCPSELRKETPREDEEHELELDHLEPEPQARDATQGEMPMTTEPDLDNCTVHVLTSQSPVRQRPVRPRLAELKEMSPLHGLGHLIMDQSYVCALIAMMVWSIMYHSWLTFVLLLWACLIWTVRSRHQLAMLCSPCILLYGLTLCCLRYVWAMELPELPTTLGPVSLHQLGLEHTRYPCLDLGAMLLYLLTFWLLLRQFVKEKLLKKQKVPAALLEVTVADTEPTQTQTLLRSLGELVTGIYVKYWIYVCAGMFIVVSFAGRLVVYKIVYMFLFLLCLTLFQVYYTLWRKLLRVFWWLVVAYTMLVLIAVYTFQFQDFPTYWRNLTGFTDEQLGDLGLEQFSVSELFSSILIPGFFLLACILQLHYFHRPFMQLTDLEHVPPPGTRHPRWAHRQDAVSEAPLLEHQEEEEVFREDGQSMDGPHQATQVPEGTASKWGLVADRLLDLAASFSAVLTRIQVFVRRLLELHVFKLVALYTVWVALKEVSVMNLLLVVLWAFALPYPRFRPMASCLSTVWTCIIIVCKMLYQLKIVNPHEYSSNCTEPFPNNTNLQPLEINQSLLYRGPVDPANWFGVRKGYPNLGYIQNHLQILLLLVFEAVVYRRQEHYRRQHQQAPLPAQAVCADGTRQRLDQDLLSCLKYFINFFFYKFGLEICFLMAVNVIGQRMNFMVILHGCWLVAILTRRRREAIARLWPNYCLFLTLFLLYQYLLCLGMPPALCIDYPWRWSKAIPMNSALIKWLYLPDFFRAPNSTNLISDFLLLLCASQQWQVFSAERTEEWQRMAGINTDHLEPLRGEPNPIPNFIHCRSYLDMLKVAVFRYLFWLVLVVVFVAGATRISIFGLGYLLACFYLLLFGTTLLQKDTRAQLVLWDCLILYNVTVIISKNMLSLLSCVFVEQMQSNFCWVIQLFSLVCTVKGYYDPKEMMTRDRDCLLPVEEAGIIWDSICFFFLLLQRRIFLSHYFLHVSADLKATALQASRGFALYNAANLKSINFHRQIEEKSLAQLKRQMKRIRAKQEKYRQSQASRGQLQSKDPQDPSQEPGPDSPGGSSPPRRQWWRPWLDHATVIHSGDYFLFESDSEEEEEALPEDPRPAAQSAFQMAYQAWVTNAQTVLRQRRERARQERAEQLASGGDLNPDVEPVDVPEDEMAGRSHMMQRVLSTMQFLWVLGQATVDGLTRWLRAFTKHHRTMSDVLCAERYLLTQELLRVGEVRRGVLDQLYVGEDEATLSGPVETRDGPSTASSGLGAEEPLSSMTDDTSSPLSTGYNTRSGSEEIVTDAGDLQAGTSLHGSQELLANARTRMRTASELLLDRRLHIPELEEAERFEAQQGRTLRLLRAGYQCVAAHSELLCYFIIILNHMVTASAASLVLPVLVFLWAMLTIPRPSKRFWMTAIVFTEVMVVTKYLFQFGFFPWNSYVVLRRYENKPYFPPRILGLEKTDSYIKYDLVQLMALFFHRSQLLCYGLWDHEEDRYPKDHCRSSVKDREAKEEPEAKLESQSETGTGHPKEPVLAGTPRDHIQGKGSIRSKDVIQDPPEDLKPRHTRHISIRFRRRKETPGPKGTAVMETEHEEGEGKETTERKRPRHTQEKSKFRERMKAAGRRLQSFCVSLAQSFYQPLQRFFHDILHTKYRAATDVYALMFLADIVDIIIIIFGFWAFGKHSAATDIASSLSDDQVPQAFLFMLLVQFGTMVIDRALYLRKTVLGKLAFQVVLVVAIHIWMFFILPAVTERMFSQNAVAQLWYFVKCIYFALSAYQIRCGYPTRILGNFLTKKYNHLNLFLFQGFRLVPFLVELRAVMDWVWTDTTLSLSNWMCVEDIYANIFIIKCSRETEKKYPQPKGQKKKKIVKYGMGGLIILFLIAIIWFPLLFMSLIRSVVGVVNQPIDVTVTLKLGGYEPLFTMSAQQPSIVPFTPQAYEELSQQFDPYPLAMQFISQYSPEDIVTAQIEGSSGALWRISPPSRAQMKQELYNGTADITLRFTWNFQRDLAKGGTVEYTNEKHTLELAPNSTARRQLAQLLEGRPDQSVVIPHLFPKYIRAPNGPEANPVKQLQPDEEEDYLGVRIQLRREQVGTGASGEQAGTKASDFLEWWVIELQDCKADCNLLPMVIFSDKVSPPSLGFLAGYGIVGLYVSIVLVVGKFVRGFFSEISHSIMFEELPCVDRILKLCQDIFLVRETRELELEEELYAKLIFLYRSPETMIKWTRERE

Consider `Clc1cccc(Cl)c1CSc1nnc(-c2ccc[nH]2)o1` [Dooku1, reference compound], for which the “Effect on responses to phenylephrine” value with mouse portal vein (10 μM Dooku1) is recorded as “consistently inhibited responses to phenylephrine”. The “Effect of pre-incubation on relaxations evoked by PIEZO1 agonists” value in the assay on mouse portal vein (10 μM Dooku1 pre-incubation, 30 min) was “reduces relaxations evoked by KC159 and KC289”.

Take `O=C(O)c1cccc(-c2nnc(SCc3c(Cl)cccc3Cl)s2)c1` [KC158]: the “Peak ΔCa2+i (ΔF340/380), median fold difference compared to Yoda1” value on hPIEZO1 [1] was −11.7 fold. At mPIEZO1 [2], the “Peak ΔCa2+i (ΔF340/380), median fold difference compared to Yoda1” value was −2.0 fold and the “Ca2+ response (agonist effect)” value is given as “agonist effects”. Also, the “0.5 μM Yoda1-evoked peak ΔCa2+i (ΔF340/380), median fold difference compared to DMSO pretreatment” value on mPIEZO1 [3] is −4.9 fold. For the same molecule, at hPIEZO1 [4], the “2 μM Yoda1-evoked peak ΔCa2+i (ΔF340/380), median fold difference compared to DMSO pretreatment” value is −3.8 fold and the “Inhibition of the action of Yoda1” value is “inhibit the Yoda1 response”.

With `NC(=O)c1ccc(-c2nnc(SCc3c(Cl)cccc3Cl)s2)cc1` [KC161], the “Peak ΔCa2+i (ΔF340/380), median fold difference compared to Yoda1” value on hPIEZO1 [1] is given as −23.6 fold. For the same molecule, at mPIEZO1 [2], the “Peak ΔCa2+i (ΔF340/380), median fold difference compared to Yoda1” value is given as −3.8 fold and the “Ca2+ response (agonist effect)” value is on record as “agonist effects”. Moreover, at mPIEZO1 [3], the “0.5 μM Yoda1-evoked peak ΔCa2+i (ΔF340/380), median fold difference compared to DMSO pretreatment” value is recorded as −6.5 fold.

Turning to `NC(=O)c1cccc(-c2nnc(SCc3c(Cl)cccc3Cl)s2)c1` [KC162], the “Peak ΔCa2+i (ΔF340/380), median fold difference compared to Yoda1” value at hPIEZO1 [1] was −3.7 fold. For the same molecule, at mPIEZO1 [2], the “Peak ΔCa2+i (ΔF340/380), median fold difference compared to Yoda1” value is reported as −3.7 fold and the “Ca2+ response (agonist effect)” value is reported as “agonist effects”. Also, the “0.5 μM Yoda1-evoked peak ΔCa2+i (ΔF340/380), median fold difference compared to DMSO pretreatment” value on mPIEZO1 [3] was −8.2 fold. Also, at hPIEZO1 [4], the “2 μM Yoda1-evoked peak ΔCa2+i (ΔF340/380), median fold difference compared to DMSO pretreatment” value is on record as −2.5 fold and the “Inhibition of the action of Yoda1” value is reported as “inhibit the Yoda1 response”.
